Assay results reported in patent publication US7118895B2, “Process for producing aglycon by using diglycosidase and flavor-improved food containing the aglycon and converting agent to be used in the process” (Amano Enzyme Inc., priority 2000, dated 2006).

Columns and labels:
Purified diglycosidase = assay: Influence of free glucose on diglycosidase activity; type: biochemical, Penicillium multicolor IAM7153; conditions: isolated aglycon amount at glucose 0% and 0.5 hour = 100%
Experimental: Purified diglycosidase was diluted with 20 mM acetate buffer of pH 4.0 to prepare a 0.75 AU/mL enzyme solution.
With a glucose solution was mixed 10 μL of each 2 mM substrate solution described in Example 2, and 20 mM acetate buffer of pH 4.0 was added thereto to be a liquid volume of 210 μL. Further, 40 μL of the enzyme solution was added and reaction was carried out at a final liquid volume of 250 μL. Adjustment of the glucose solution to be added allows glucose to exist in the reaction mixture in the range of 0 to 20%. The reaction was carried out at 55° C. and the existence of isoflavone glycosides and aglycon isoflavones was detected by HLPC at 0, 0.5, 1, and 3 hours of the reaction.

[1] = system: Diglycosidase derived from A. fumigatus; assay: Reactivity toward various isoflavone glycosides (HPLC); type: biochemical, Aspergillus fumigatus; parameters: unit not given here; conditions: 55 °C, pH 4.0
Experimental: (§1) Diglycosidase was diluted with an acetate buffer of pH 4.0 to prepare a 0.75 AU/mL enzyme solution. As references, a similar operation was conducted using β-glucosidase (manufactured by Fluka) derived from Aspergillus niger, β-glucosidase (manufactured by Sigma) derived from almond, β-xylosidase derived from pectinase G (manufactured by Amano Enzyme Inc.). Each of purified products of isoflavone glycosides (glycitin, acetylglycitin, malonylglycitin, daidzin, acetyldaidzin, malonyldaidzin, genistin, acetylgenistin, malonylgenistin, all manufactured by Nacalai Tesque, Inc.) was dissolved in methanol to prepare each 2 mM substrate solution. The reaction was carried out by mixing 10 μL of a substrate solution, 200 μL of 20 mM acetate buffer (pH 4.0), and 40 μL of each purified enzyme solution at a total liquid volume of 250 μL. The reaction was carried out at 55° C. and isolation of an aglycon isoflavone from an isoflavone glycoside in the reaction mixture was detected by HLPC at 0, 1, 3, and 6 hours of the reaction.
(§2) To the reaction mixture was added 700 μL of ethanol, followed by stirring and ultrasonication. After centrifugation at 15,000 rpm and 4° C. for 10 minutes, the supernatant was filtered through a filter and then the filtrate was applied to HPLC.
(§3) The isoflavone glycoside and aglycon isoflavone contained in the filtrate was separated and detected by a high performance liquid chromatography (HPLC, Shimadzu CLASS LC-10 system) using TOSOH TSK gel ODS-80TM column (manufactured by Tosoh Corporation). […] The absorbance at 260 nm was detected by a UV detector (Shimadzu, SPD-10AV). Using purified products (manufactured by Nacalai Tesque, Inc.) of the above isoflavone glycosides and aglycon isoflavones, the isoflavone glycoside and aglycon isoflavone were quantitatively determined according to a calibration curve method. By the way, unless otherwise stated, the measuring conditions of HPLC herein mean those described in the example.

[2] = system: β-Xylosidase derived from pectinase G; assay: as above; type: biochemical; parameters: unit not given here; conditions: 55 °C, pH 4.0
Experimental: as §1, §2, §3

[3] = system: β-Glucosidase derived from almond; assay: as above; type: biochemical; parameters: unit not given here; conditions: 55 °C, pH 4.0
Experimental: as §1, §2, §3

With CC(=O)OC[C@H]1O[C@@H](Oc2ccc3c(=O)c(-c4ccc(O)cc4)coc3c2)[C@H](O)[C@@H](O)[C@@H]1O [acetyldaidzin, 6″-O-acetyldaidzin] the “Isolation of isoflavone aglycons by diglycosidase in presence of glucose” value (shortened to “Isolation of isoflavone aglycons”) (Purified diglycosidase; Glucose concentration 0 %) was 100%, the “Isolation of isoflavone aglycons” value (Purified diglycosidase; Glucose concentration 2 %) was 108.1% and the “Isolation of isoflavone aglycons” value (Purified diglycosidase; Glucose concentration 4 %) was 112.2%. The “Isolation of isoflavone aglycons” value (Purified diglycosidase; Glucose concentration 8 %) was 115.8%, the “Isolation of isoflavone aglycons” value (Purified diglycosidase; Glucose concentration 20 %) was 114.5% and the aglycon ([1]; Reaction time 0 h) was 0. For the same compound, the glucoside ([1]; Reaction time 0 h) was 100, the aglycon ([1]; Reaction time 1 h) was 26.1 and the glucoside ([1]; Reaction time 1 h) was 73.9. The aglycon ([1]; Reaction time 3 h) was 47.2, the glucoside ([1]; Reaction time 3 h) was 52.8 and the aglycon ([1]; Reaction time 6 h) was 66.5. The glucoside ([1]; Reaction time 6 h) was 33.5, the aglycon ([2]; Reaction time 0 h) was 0 and the glucoside ([2]; Reaction time 0 h) was 100. For the same compound, the aglycon ([2]; Reaction time 1 h) was 9.7, the glucoside ([2]; Reaction time 1 h) was 90.3 and the aglycon ([2]; Reaction time 3 h) was 1.3. The glucoside ([2]; Reaction time 3 h) was 98.7, the aglycon ([2]; Reaction time 6 h) was 2.3 and the glucoside ([2]; Reaction time 6 h) was 97.7. For the same compound, the aglycon ([3]; Reaction time 0 h) was 0.2, the glucoside ([3]; Reaction time 0 h) was 99.8 and the aglycon ([3]; Reaction time 1 h) was 0.5. For the same compound, the glucoside ([3]; Reaction time 1 h) was 99.5, the aglycon ([3]; Reaction time 3 h) was 0.6 and the glucoside ([3]; Reaction time 3 h) was 99.4. It also gave an aglycon ([3]; Reaction time 6 h) of 0.6 and a glucoside ([3]; Reaction time 6 h) of 99.4.
CC(=O)OC[C@H]1O[C@@H](Oc2cc(O)c3c(=O)c(-c4ccc(O)cc4)coc3c2)[C@H](O)[C@@H](O)[C@@H]1O [acetylgenistin, 6″-O-acetylgenistin] was tested, and the “Isolation of isoflavone aglycons” value (Purified diglycosidase; Glucose concentration 0 %) was 100%, the “Isolation of isoflavone aglycons” value (Purified diglycosidase; Glucose concentration 2 %) was 104.1% and the “Isolation of isoflavone aglycons” value (Purified diglycosidase; Glucose concentration 4 %) was 104.1%. For the same compound, the “Isolation of isoflavone aglycons” value (Purified diglycosidase; Glucose concentration 8 %) was 104.1%, the “Isolation of isoflavone aglycons” value (Purified diglycosidase; Glucose concentration 20 %) was 104.1% and the aglycon ([1]; Reaction time 0 h) was 0. The glucoside ([1]; Reaction time 0 h) was 100, the aglycon ([1]; Reaction time 1 h) was 12.6 and the glucoside ([1]; Reaction time 1 h) was 87.4. The aglycon ([1]; Reaction time 3 h) was 22.9, the glucoside ([1]; Reaction time 3 h) was 77.1 and the aglycon ([1]; Reaction time 6 h) was 35.2. It also gave a glucoside ([1]; Reaction time 6 h) of 64.8, an aglycon ([2]; Reaction time 0 h) of 0 and a glucoside ([2]; Reaction time 0 h) of 100. For the same compound, the aglycon ([2]; Reaction time 1 h) was 0, the glucoside ([2]; Reaction time 1 h) was 100 and the aglycon ([2]; Reaction time 3 h) was 0.2. The glucoside ([2]; Reaction time 3 h) was 99.8, the aglycon ([2]; Reaction time 6 h) was 0.5 and the glucoside ([2]; Reaction time 6 h) was 99.5. For the same compound, the aglycon ([3]; Reaction time 0 h) was 0, the glucoside ([3]; Reaction time 0 h) was 100 and the aglycon ([3]; Reaction time 1 h) was 0. The glucoside ([3]; Reaction time 1 h) was 100, the aglycon ([3]; Reaction time 3 h) was 0 and the glucoside ([3]; Reaction time 3 h) was 100. It also gave an aglycon ([3]; Reaction time 6 h) of 0 and a glucoside ([3]; Reaction time 6 h) of 100.
COc1cc2c(=O)c(-c3ccc(O)cc3)coc2cc1O[C@@H]1O[C@H](COC(C)=O)[C@@H](O)[C@H](O)[C@H]1O [acetylglycitin, 6″-O-acetylglycitin] was tested, and the “Isolation of isoflavone aglycons” value (Purified diglycosidase; Glucose concentration 0 %) was 100%, the “Isolation of isoflavone aglycons” value (Purified diglycosidase; Glucose concentration 2 %) was 100.9% and the “Isolation of isoflavone aglycons” value (Purified diglycosidase; Glucose concentration 4 %) was 100.9%. For the same compound, the “Isolation of isoflavone aglycons” value (Purified diglycosidase; Glucose concentration 8 %) was 100.9%, the “Isolation of isoflavone aglycons” value (Purified diglycosidase; Glucose concentration 20 %) was 100.9% and the aglycon ([1]; Reaction time 0 h) was 0. For the same compound, the glucoside ([1]; Reaction time 0 h) was 100, the aglycon ([1]; Reaction time 1 h) was 6 and the glucoside ([1]; Reaction time 1 h) was 94. The aglycon ([1]; Reaction time 3 h) was 13.5, the glucoside ([1]; Reaction time 3 h) was 86.5 and the aglycon ([1]; Reaction time 6 h) was 22.7. For the same compound, the glucoside ([1]; Reaction time 6 h) was 77.3, the aglycon ([2]; Reaction time 0 h) was 0 and the glucoside ([2]; Reaction time 0 h) was 100. For the same compound, the aglycon ([2]; Reaction time 1 h) was 0, the glucoside ([2]; Reaction time 1 h) was 100 and the aglycon ([2]; Reaction time 3 h) was 0. It also gave a glucoside ([2]; Reaction time 3 h) of 100, an aglycon ([2]; Reaction time 6 h) of 0 and a glucoside ([2]; Reaction time 6 h) of 100. For the same compound, the aglycon ([3]; Reaction time 0 h) was 0, the glucoside ([3]; Reaction time 0 h) was 100 and the aglycon ([3]; Reaction time 1 h) was 0. The glucoside ([3]; Reaction time 1 h) was 100, the aglycon ([3]; Reaction time 3 h) was 0 and the glucoside ([3]; Reaction time 3 h) was 100. For the same compound, the aglycon ([3]; Reaction time 6 h) was 0 and the glucoside ([3]; Reaction time 6 h) was 100.
In the case of O=c1c(-c2ccc(O)cc2)coc2cc(O[C@@H]3O[C@H](CO)[C@@H](O)[C@H](O)[C@H]3O)ccc12 [daidzin], the “Isolation of isoflavone aglycons” value (Purified diglycosidase; Glucose concentration 0 %) is reported as 100%, the “Isolation of isoflavone aglycons” value (Purified diglycosidase; Glucose concentration 2 %) is reported as 128.1% and the “Isolation of isoflavone aglycons” value (Purified diglycosidase; Glucose concentration 4 %) is reported as 126%. The “Isolation of isoflavone aglycons” value (Purified diglycosidase; Glucose concentration 8 %) was 129.1%, the “Isolation of isoflavone aglycons” value (Purified diglycosidase; Glucose concentration 20 %) was 111.9% and the aglycon ([1]; Reaction time 0 h) was 0.9. It also gave a glucoside ([1]; Reaction time 0 h) of 99.1, an aglycon ([1]; Reaction time 1 h) of 7.1 and a glucoside ([1]; Reaction time 1 h) of 92.9. The aglycon ([1]; Reaction time 3 h) was 14.7, the glucoside ([1]; Reaction time 3 h) was 85.3 and the aglycon ([1]; Reaction time 6 h) was 24.8. It also gave a glucoside ([1]; Reaction time 6 h) of 75.2, an aglycon ([2]; Reaction time 0 h) of 0.9 and a glucoside ([2]; Reaction time 0 h) of 99.1. The aglycon ([2]; Reaction time 1 h) was 9.1, the glucoside ([2]; Reaction time 1 h) was 90.9 and the aglycon ([2]; Reaction time 3 h) was 24. It also gave a glucoside ([2]; Reaction time 3 h) of 76, an aglycon ([2]; Reaction time 6 h) of 42.1 and a glucoside ([2]; Reaction time 6 h) of 57.9. The aglycon ([3]; Reaction time 0 h) was 0.9, the glucoside ([3]; Reaction time 0 h) was 99.1 and the aglycon ([3]; Reaction time 1 h) was 9.1. It also gave a glucoside ([3]; Reaction time 1 h) of 90.9, an aglycon ([3]; Reaction time 3 h) of 10.8 and a glucoside ([3]; Reaction time 3 h) of 89.2. For the same compound, the aglycon ([3]; Reaction time 6 h) was 11.3 and the glucoside ([3]; Reaction time 6 h) was 88.7.
O=c1c(-c2ccc(O)cc2)coc2cc(O[C@@H]3O[C@H](CO)[C@@H](O)[C@H](O)[C@H]3O)cc(O)c12 [genistin] showed an aglycon ([1]; Reaction time 0 h) of 0, a glucoside ([1]; Reaction time 0 h) of 100 and an aglycon ([1]; Reaction time 1 h) of 0. It also gave a glucoside ([1]; Reaction time 1 h) of 100, an aglycon ([1]; Reaction time 3 h) of 0 and a glucoside ([1]; Reaction time 3 h) of 100. For the same compound, the aglycon ([1]; Reaction time 6 h) was 0, the glucoside ([1]; Reaction time 6 h) was 100 and the aglycon ([2]; Reaction time 0 h) was 0. The glucoside ([2]; Reaction time 0 h) was 100, the aglycon ([2]; Reaction time 1 h) was 1.5 and the glucoside ([2]; Reaction time 1 h) was 98.5. For the same compound, the aglycon ([2]; Reaction time 3 h) was 1.8, the glucoside ([2]; Reaction time 3 h) was 98.2 and the aglycon ([2]; Reaction time 6 h) was 1.8. It also gave a glucoside ([2]; Reaction time 6 h) of 98.2, an aglycon ([3]; Reaction time 0 h) of 0 and a glucoside ([3]; Reaction time 0 h) of 100. It also gave an aglycon ([3]; Reaction time 1 h) of 9.4, a glucoside ([3]; Reaction time 1 h) of 90.6 and an aglycon ([3]; Reaction time 3 h) of 11.4. The glucoside ([3]; Reaction time 3 h) was 88.6, the aglycon ([3]; Reaction time 6 h) was 11.8 and the glucoside ([3]; Reaction time 6 h) was 88.2.
